Measurements taken from the supplement of paper PMC10307832.

What was measured:
Assay in all cases: relative viability (nuclei count vs DMSO), 5 days (fraction); higher = more cells survive
Axitinib + Foretinib = compound: CNC(=O)c1ccccc1Sc1ccc2c(/C=C/c3ccccn3)n[nH]c2c1 [Axitinib] + COc1cc2c(Oc3ccc(NC(=O)C4(C(=O)Nc5ccc(F)cc5)CC4)cc3F)ccnc2cc1OCCCN1CCOCC1 [Foretinib] (partner 0.25 µM)
Summary of the method: (§1)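 A single step with final 0.05% Triton X-100, 1% formaldehyde and 1 ug/ml Hoechst fixed the cells and stained nuclei 5 days after treatment. Lung cancer cell lines in 1536-well plates had been treated by pin tool the day after seeding with one drug alone or a fixed anchor-drug dose plus five library-drug doses (not always all listed) in √10 steps, and nuclei were counted on 4× images. Relative viability is the ratio of nuclei in treated wells to nuclei in vehicle wells, taken as the median of duplicate plates.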

Bemcentinib + Crizotinib = compound: Nc1nc(Nc2ccc3c(c2)CC[C@@H](N2CCCC2)CC3)nn1-c1cc2c(nn1)-c1ccccc1CCC2 [Bemcentinib] + C[C@@H](Oc1cc(-c2cnn(C3CCNCC3)c2)cnc1N)c1c(Cl)ccc(F)c1Cl [Crizotinib] (partner 1 µM)
Summary of the method: as §1

Bemcentinib + Vorinostat = compound: Nc1nc(Nc2ccc3c(c2)CC[C@@H](N2CCCC2)CC3)nn1-c1cc2c(nn1)-c1ccccc1CCC2 [Bemcentinib] + O=C(CCCCCCC(=O)Nc1ccccc1)NO [Vorinostat] (partner 1 µM)
Summary of the method: as §1

Axitinib + Decitabine = compound: CNC(=O)c1ccccc1Sc1ccc2c(/C=C/c3ccccn3)n[nH]c2c1 [Axitinib] + Nc1ncn([C@H]2C[C@H](O)[C@@H](CO)O2)c(=O)n1 [Decitabine] (partner 2 µM)
Summary of the method: as §1

NCI-H650 gave a relative viability (Axitinib + Foretinib; first compound 0.005 µM) of 1.08, a relative viability (Axitinib + Foretinib; first compound 0.01581 µM) of 1.12 and a relative viability (Axitinib + Foretinib; first compound 0.05 µM) of 0.953. The relative viability (Axitinib + Foretinib; first compound 0.1581 µM) was 0.984, the relative viability (Axitinib + Foretinib; first compound 0.5 µM) was 1.07 and the relative viability (Bemcentinib + Crizotinib; first compound 0.04 µM) was 0.721. The relative viability (Bemcentinib + Crizotinib; first compound 0.1265 µM) was 0.785, the relative viability (Bemcentinib + Crizotinib; first compound 0.4 µM) was 0.679 and the relative viability (Bemcentinib + Crizotinib; first compound 1.265 µM) was 0.703. The relative viability (Bemcentinib + Crizotinib; first compound 4 µM) was 0.618, the relative viability (Bemcentinib + Vorinostat; first compound 0.04 µM) was 0.353 and the relative viability (Bemcentinib + Vorinostat; first compound 0.1265 µM) was 0.442. For the same cell line, the relative viability (Bemcentinib + Vorinostat; first compound 0.4 µM) was 0.378, the relative viability (Bemcentinib + Vorinostat; first compound 1.265 µM) was 0.374 and the relative viability (Bemcentinib + Vorinostat; first compound 4 µM) was 0.418. It also gave a relative viability (Axitinib + Decitabine; first compound 0.005 µM) of 0.287, a relative viability (Axitinib + Decitabine; first compound 0.01581 µM) of 0.335 and a relative viability (Axitinib + Decitabine; first compound 0.05 µM) of 0.289. The relative viability (Axitinib + Decitabine; first compound 0.1581 µM) was 0.31 and the relative viability (Axitinib + Decitabine; first compound 0.5 µM) was 0.306.
